Laboratory results as given in PubChem BioAssay (NCI).
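All cell lines were grown in 96-well plates and treated with compound for 48 hours. The concentration for full growth arrest is given as TGI.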

Assays:
Test in all cases: NCI anticancer screen, dose series, 48 h
[1] = tested on: 786-0 renal
[2] = tested on: A498 renal
[3] = tested on: A549 NSCLC
[4] = tested on: ACHN renal
[5] = tested on: BT-549 breast
[6] = tested on: CAKI-1 renal
[7] = tested on: CCRF-CEM leukemia
[8] = tested on: COLO 205 colon
[9] = tested on: DU-145 prostate
[10] = tested on: EKVX NSCLC
[11] = tested on: HCT-116 colon
[12] = tested on: HCT-15 colon
[13] = tested on: HL-60(TB) leukemia
[14] = tested on: HOP-62 NSCLC
[15] = tested on: HOP-92 NSCLC
[16] = tested on: HS 578T breast
[17] = tested on: HT29 colon
[18] = tested on: IGROV1 ovarian
[19] = tested on: K-562 leukemia
[20] = tested on: KM12 colon
[21] = tested on: LOX IMVI melanoma
[22] = tested on: M14 melanoma
[23] = tested on: MALME-3M melanoma
[24] = tested on: MCF7 breast
[25] = tested on: MDA-MB-231 breast
[26] = tested on: MDA-MB-435
[27] = tested on: MDA-N
[28] = tested on: MOLT-4 leukemia
[29] = tested on: NCI-H226 lung
[30] = tested on: NCI-H23 lung
[31] = tested on: NCI-H460 lung
[32] = tested on: NCI/ADR-RES ovarian
[33] = tested on: OVCAR-3 ovarian
[34] = tested on: OVCAR-4 ovarian
[35] = tested on: OVCAR-5 ovarian
[36] = tested on: OVCAR-8 ovarian
[37] = tested on: PC-3 prostate
[38] = tested on: RPMI-8226 leukemia
[39] = tested on: RXF 393 renal
[40] = tested on: SF-268 CNS
[41] = tested on: SF-295 CNS
[42] = tested on: SF-539 CNS
[43] = tested on: SK-MEL-28 melanoma
[44] = tested on: SK-MEL-5 melanoma
[45] = tested on: SK-OV-3 ovarian
[46] = tested on: SN12C renal
[47] = tested on: SNB-19 CNS
[48] = tested on: SW-620 colon
[49] = tested on: T-47D breast
[50] = tested on: TK-10 renal
[51] = tested on: U251 CNS
[52] = tested on: UACC-257 melanoma
[53] = tested on: UACC-62 melanoma
[54] = tested on: UO-31 renal
[55] = tested on: HCC-2998 colon
[56] = tested on: NCI-H522 lung
[57] = tested on: SK-MEL-2 melanoma
[58] = tested on: SNB-75 CNS
[59] = tested on: SR leukemia

## CCOC(=O)c1ccc2c(c1)Cc1cc([N+](=O)[O-])ccc1-2
[1]
  TGI: > 100 µM
[2]
  TGI: > 100 µM
[3]
  TGI: > 100 µM
[4]
  TGI: > 100 µM
[5]
  TGI: 94.2 µM
[6]
  TGI: > 100 µM
[7]
  TGI: > 100 µM
[8]
  TGI: 78.6 µM
[9]
  TGI: > 100 µM
[10]
  TGI: 50.6 µM
[11]
  TGI: > 100 µM
[12]
  TGI: > 100 µM
[13]
  TGI: > 100 µM
[14]
  TGI: > 100 µM
[15]
  TGI: > 100 µM
[16]
  TGI: > 100 µM
[17]
  TGI: 86.4 µM
[18]
  TGI: > 100 µM
[19]
  TGI: > 100 µM
[20]
  TGI: > 100 µM
[21]
  TGI: > 100 µM
[22]
  TGI: > 100 µM
[23]
  TGI: > 100 µM
[24]
  TGI: 71.2 µM
[25]
  TGI: > 100 µM
[26]
  TGI: > 100 µM
[27]
  TGI: > 100 µM
[28]
  TGI: 51.6 µM
[29]
  TGI: 51.2 µM
[30]
  TGI: > 100 µM
[31]
  TGI: > 100 µM
[32]
  TGI: 99.4 µM
[33]
  TGI: > 100 µM
[34]
  TGI: 56 µM
[35]
  TGI: > 100 µM
[36]
  TGI: > 100 µM
[37]
  TGI: > 100 µM
[38]
  TGI: > 100 µM
[39]
  TGI: 55.5 µM
[40]
  TGI: 88 µM
[41]
  TGI: > 100 µM
[42]
  TGI: > 100 µM
[43]
  TGI: > 100 µM
[44]
  TGI: 44.2 µM
[45]
  TGI: > 100 µM
[46]
  TGI: > 100 µM
[47]
  TGI: > 100 µM
[48]
  TGI: > 100 µM
[49]
  TGI: > 100 µM
[50]
  TGI: 86.5 µM
[51]
  TGI: > 100 µM
[52]
  TGI: > 100 µM
[53]
  TGI: > 100 µM
[54]
  TGI: > 100 µM

## CCOC(=O)CCC(NC(=O)Cc1ccc(Nc2nc3ccccc3nc2-c2cccs2)cc1)C(=O)OCC (stereo not given)
[1]
  TGI: > 100 µM
[2]
  TGI: > 100 µM
[3]
  TGI: > 100 µM
[4]
  TGI: > 100 µM
[5]
  TGI: > 100 µM
[6]
  TGI: > 100 µM
[7]
  TGI: > 100 µM
[8]
  TGI: > 100 µM
[9]
  TGI: > 100 µM
[10]
  TGI: > 100 µM
[55]
  TGI: > 100 µM
[11]
  TGI: > 100 µM
[12]
  TGI: > 100 µM
[13]
  TGI: > 100 µM
[14]
  TGI: > 100 µM
[16]
  TGI: > 100 µM
[17]
  TGI: > 100 µM
[19]
  TGI: > 100 µM
[20]
  TGI: > 100 µM
[22]
  TGI: > 100 µM
[23]
  TGI: > 100 µM
[24]
  TGI: > 100 µM
[25]
  TGI: > 100 µM
[26]
  TGI: > 100 µM
[27]
  TGI: > 100 µM
[28]
  TGI: > 100 µM
[29]
  TGI: > 100 µM
[30]
  TGI: > 100 µM
[31]
  TGI: > 100 µM
[56]
  TGI: > 100 µM
[32]
  TGI: > 100 µM
[33]
  TGI: > 100 µM
[34]
  TGI: > 100 µM
[35]
  TGI: > 100 µM
[37]
  TGI: > 100 µM
[38]
  TGI: > 100 µM
[39]
  TGI: 52.5 µM
[40]
  TGI: > 100 µM
[41]
  TGI: > 100 µM
[42]
  TGI: > 100 µM
[57]
  TGI: > 100 µM
[43]
  TGI: > 100 µM
[44]
  TGI: > 100 µM
[45]
  TGI: > 100 µM
[46]
  TGI: > 100 µM
[47]
  TGI: > 100 µM
[58]
  TGI: > 100 µM
[59]
  TGI: > 100 µM
[48]
  TGI: > 100 µM
[49]
  TGI: 66.9 µM
[50]
  TGI: 84.5 µM
[51]
  TGI: > 100 µM
[52]
  TGI: > 100 µM
[53]
  TGI: > 100 µM
[54]
  TGI: > 100 µM

## COc1cc2nc(Nc3cccc(Br)c3)nc(Nc3cccc(Br)c3)c2cc1OC
[1]
  TGI: 31 µM
[3]
  TGI: 32.6 µM
[4]
  TGI: 29.4 µM
[5]
  TGI: 30.7 µM
[6]
  TGI: 29.8 µM
[7]
  TGI: 46.5 µM
[8]
  TGI: 27.7 µM
[9]
  TGI: 34.1 µM
[10]
  TGI: 39.8 µM
[55]
  TGI: 44.6 µM
[11]
  TGI: 31.4 µM
[12]
  TGI: 33.3 µM
[14]
  TGI: 33.6 µM
[15]
  TGI: 29.5 µM
[16]
  TGI: 38.5 µM
[17]
  TGI: 34.8 µM
[18]
  TGI: 30.1 µM
[19]
  TGI: 62.2 µM
[20]
  TGI: 36.7 µM
[21]
  TGI: 30.4 µM
[22]
  TGI: 32.3 µM
[23]
  TGI: 34.7 µM
[24]
  TGI: 32.4 µM
[25]
  TGI: 39.7 µM
[26]
  TGI: 36 µM
[27]
  TGI: 32.8 µM
[28]
  TGI: 47.2 µM
[30]
  TGI: 33.3 µM
[31]
  TGI: 51.8 µM
[56]
  TGI: 32.4 µM
[32]
  TGI: 37.5 µM
[33]
  TGI: 31.2 µM
[34]
  TGI: 30.9 µM
[35]
  TGI: 70.9 µM
[36]
  TGI: 31.6 µM
[37]
  TGI: 41.6 µM
[39]
  TGI: 33.7 µM
[40]
  TGI: 29.9 µM
[41]
  TGI: 32.7 µM
[57]
  TGI: 36.1 µM
[43]
  TGI: 33.5 µM
[44]
  TGI: 30.7 µM
[45]
  TGI: 34.4 µM
[46]
  TGI: 31.4 µM
[47]
  TGI: 32.3 µM
[58]
  TGI: 31.8 µM
[48]
  TGI: 45.8 µM
[49]
  TGI: 43.7 µM
[50]
  TGI: 39.3 µM
[51]
  TGI: 35.7 µM
[53]
  TGI: 32.8 µM
[54]
  TGI: 29.4 µM

## O=Cc1c2n(c3ccccc13)N[C@@](Cc1ccc(O)cc1)(C(=O)O)C2
[1]
  TGI: > 100 µM
[2]
  TGI: > 100 µM
[3]
  TGI: > 100 µM
[4]
  TGI: > 100 µM
[5]
  TGI: > 100 µM
[6]
  TGI: > 100 µM
[7]
  TGI: > 100 µM
[8]
  TGI: > 100 µM
[9]
  TGI: > 100 µM
[10]
  TGI: > 100 µM
[11]
  TGI: > 100 µM
[12]
  TGI: > 100 µM
[13]
  TGI: > 100 µM
[14]
  TGI: > 100 µM
[15]
  TGI: > 100 µM
[16]
  TGI: > 100 µM
[17]
  TGI: > 100 µM
[18]
  TGI: > 100 µM
[19]
  TGI: > 100 µM
[20]
  TGI: > 100 µM
[21]
  TGI: > 100 µM
[22]
  TGI: > 100 µM
[23]
  TGI: > 100 µM
[24]
  TGI: > 100 µM
[25]
  TGI: > 100 µM
[26]
  TGI: > 100 µM
[27]
  TGI: > 100 µM
[28]
  TGI: > 100 µM
[29]
  TGI: > 100 µM
[30]
  TGI: > 100 µM
[56]
  TGI: > 100 µM
[32]
  TGI: > 100 µM
[33]
  TGI: > 100 µM
[34]
  TGI: > 100 µM
[35]
  TGI: > 100 µM
[36]
  TGI: > 100 µM
[37]
  TGI: > 100 µM
[38]
  TGI: > 100 µM
[40]
  TGI: > 100 µM
[41]
  TGI: > 100 µM
[42]
  TGI: > 100 µM
[57]
  TGI: > 100 µM
[43]
  TGI: > 100 µM
[44]
  TGI: > 100 µM
[45]
  TGI: > 100 µM
[47]
  TGI: > 100 µM
[59]
  TGI: > 100 µM
[48]
  TGI: > 100 µM
[49]
  TGI: > 100 µM
[50]
  TGI: > 100 µM
[51]
  TGI: > 100 µM
[52]
  TGI: 86.9 µM
[53]
  TGI: > 100 µM
[54]
  TGI: > 100 µM
